According to BigSolDB 2.1:

Cc1ncc(CO)c(CO)c1O.Cl
solubility (mole fraction)
Settings | 278.15 K | 283.15 K | 288.15 K | 293.15 K | 298.15 K | 303.15 K | 308.15 K | 313.15 K
in ethanol | 0.000447 | 0.000484 | 0.000557 | 0.000651 | 0.000801 | 0.000989 | 0.00118 | 0.00143
in methanol | 0.00221 | 0.00253 | 0.0028 | 0.00329 | 0.00373 | 0.00425 | 0.00486 | 0.00549
in water | 0.0105 | 0.0123 | 0.0144 | 0.0168 | 0.0191 | 0.022 | 0.025 | 0.0286
